Biological target: T1, recombinantly expressed human sodium-dependent ileal bile acid transporter (IBAT) (Homo sapiens, UniProt Q12908)
T1 construct: Bases 599 to 1645 correspond to the complete coding region of the human IBAT; expressed in transfected cells
T1 sequence (Q12908 1-348): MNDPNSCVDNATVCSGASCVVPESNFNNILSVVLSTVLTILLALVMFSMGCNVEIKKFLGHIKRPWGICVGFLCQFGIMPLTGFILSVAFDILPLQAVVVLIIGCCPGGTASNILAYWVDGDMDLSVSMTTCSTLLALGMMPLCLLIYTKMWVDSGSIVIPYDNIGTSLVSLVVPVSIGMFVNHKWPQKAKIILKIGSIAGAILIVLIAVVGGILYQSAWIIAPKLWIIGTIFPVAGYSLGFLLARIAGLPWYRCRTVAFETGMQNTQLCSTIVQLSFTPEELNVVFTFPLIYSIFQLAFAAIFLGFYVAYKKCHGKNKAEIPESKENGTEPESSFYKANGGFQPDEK
Assay: in vitro IBAT inhibition test ([3H]-taurocholic acid uptake into CHO-hIBAT cells)
Assay type: cell-based
Conditions: for IC50: CHO-hIBAT cells, taurocholic acid 10 μM, 60 min at room temperature
Method: Biological testing of the compound A according to the invention was carried out using the in vitro IBAT inhibition test. This test examines the effect of the compound according to the invention on the transport activity of the recombinantly expressed human sodium-dependent ileal bile acid transporter (IBAT=ileal Na^+/bile acid contransporter, ASBT=apical sodium-dependent bile acid transporter, SLC10A2=solute carrier family 10, member 2).
The cDNA (complementary deoxyribonucleic acid) of human IBAT was cloned using standard methods of molecular biology as described, for example, in Molecular Cloning: A Laboratory Manual, by Joseph Sambrook and David Russell, and introduced into the pcDNA1 vector from Invitrogen. […] Bases 599 to 1645 correspond to the complete coding region of the human IBAT.
The expression vector for the human IBAT was introduced by means of stable transfection into CHO (Chinese hamster ovary) cells. To select single cell clones, 400 μg/ml of geneticin was added to the cell culture medium (Ham's F12 medium supplemented with 10% fetal calf serum, 100 units/ml of penicillin, 100 units/ml of streptomycin). The functionality of the single cell clones resulting from the selection was tested via their uptake activity for radioactively labeled taurocholic acid ([^3H]-TCA). […]
CHO-hIBAT cells were sown at a concentration of 40 000 cells per well in cell culture medium in poly-D-lysine-coated 96-well plates and cultivated for 24 h. […] Finally, 100 μl of scintillation fluid were added to each well, and the radioactivity taken up into the cells was determined in a MicroBeta scintillation microplate reader from Wallac.
The half-maximal inhibitory effect of the test compound (IC50 value, inhibitory concentration 50) was determined as follows:
1. […] This is the value measured in the absence of substance, measured in sodium-comprising transport assay buffer.
2. […] This is the value measured in the absence of substance, measured in sodium-free transport assay buffer. […]

Row | IC50 | activity compared to comparative example from EP 1 169 313 (higher) (relative to compound 11a of EP 1 169 313, from IC50 (human IBAT)) | Structure (SMILES)
1 | 155 nM | 206% | CCCCC1(CCCC)CS(=O)(=O)c2ccc(N(C)C)cc2[C@@H](c2cccc(NC(=O)NC[C@H](O)[C@@H](O)[C@H](O)[C@H](O)CO)c2)N1 [Example A]
2 | 319 nM |  | CCCCC1(CCCC)CS(=O)(=O)c2ccc(N(C)C)cc2[C@@H](c2cccc(NC(=O)[C@H](O)[C@@H](O)[C@H](O)[C@H](O)CO)c2)N1 [compound 11a, reference compound]
